Experimental data published in patent US10316035B2, “Triazolopyridine inhibitors of myeloperoxidase” (BRISTOL-MYERS SQUIBB COMPANY, priority 2015, dated 2019).
Where a name gives a salt, the structure may show the parent alone.

Biological target: T1, myeloperoxidase (MPO) (Homo sapiens, UniProt P05164)
T1 sequence (P05164 49-745): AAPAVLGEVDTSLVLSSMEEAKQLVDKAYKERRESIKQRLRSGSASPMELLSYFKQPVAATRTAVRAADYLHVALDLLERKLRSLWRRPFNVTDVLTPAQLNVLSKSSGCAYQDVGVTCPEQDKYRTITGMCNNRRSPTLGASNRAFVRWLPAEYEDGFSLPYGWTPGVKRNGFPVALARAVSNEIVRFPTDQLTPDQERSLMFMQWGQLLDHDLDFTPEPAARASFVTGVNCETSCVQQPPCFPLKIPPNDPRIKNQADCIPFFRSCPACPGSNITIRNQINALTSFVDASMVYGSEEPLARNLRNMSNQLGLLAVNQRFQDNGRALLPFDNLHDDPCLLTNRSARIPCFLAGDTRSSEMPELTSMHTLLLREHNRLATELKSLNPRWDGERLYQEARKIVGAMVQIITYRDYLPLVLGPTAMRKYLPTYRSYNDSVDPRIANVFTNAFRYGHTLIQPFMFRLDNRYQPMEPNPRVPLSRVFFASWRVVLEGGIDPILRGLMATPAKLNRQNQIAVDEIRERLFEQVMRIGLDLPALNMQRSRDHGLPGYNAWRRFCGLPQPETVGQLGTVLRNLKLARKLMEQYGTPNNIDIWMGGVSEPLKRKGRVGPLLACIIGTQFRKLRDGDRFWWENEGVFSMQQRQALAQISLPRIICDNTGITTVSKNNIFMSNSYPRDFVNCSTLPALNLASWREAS
Assay: MPO peroxidation assay (Amplex Red assay)
Assay type: biochemical
Conditions: not given
Summary of the method: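 Peroxidase turnover of Amplex Red to fluorescent resorufin (Ex 535/Em 590 nm) was followed for 15 min in 100 mM KPi, pH 7.4, after 10 min room-temperature preincubation of compound with 200 pM enzyme plus 40 nM H2O2. The substrate mix contained 200 μM Amplex Red and 10 mM H2O2. IC50s came from linear-phase rates (180–540 s) fitted with a Hill equation.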

Question: Which IC50 does the source give for `CS(=O)(=O)c1ccccc1COc1cc(N)nc2[nH]nnc12` [Example 232, 7-((2-(Methylsulfonyl)benzyl)oxy)-3H-[1,2,3]triazolo[4,5-b]pyridin-5-amine] here?
Answer: Its IC50 is 101 to 999 nM.

Same assay, conditions: MPO peroxidation, potency range class; read-out: Amplex Red IC50

Question: With `CC(NC(=O)c1ccc(COc2cc(N)nc3[nH]nnc23)c(Cl)c1)c1ccccc1` (stereo not drawn) [Example 201, 4-((5-amino-3H-[1,2,3]triazolo[4,5-b]pyridin-7-yloxy)methyl)-3-chloro-N-(1-phenylethyl)benzamide] as the compound, how does the IC50 read?
Answer: The IC50 was 1 to 100 nM.

Question: For `CN(C)CCNC(=O)c1ccc(COc2cc(N)nc3[nH]nnc23)c(Cl)c1` [Example 202, 4-((5-amino-3H-[1,2,3]triazolo[4,5-b]pyridin-7-yloxy)methyl)-3-chloro-N-(2-(dimethylamino)ethyl) benzamide], which IC50 is on record?
Answer: The IC50 was 1 to 100 nM.

Question: `CN(C(=O)c1ccc(COc2cc(N)nc3[nH]nnc23)c(Cl)c1)c1ccccc1` [Example 203, 4-((5-amino-3H-[1,2,3]triazolo[4,5-b]pyridin-7-yloxy)methyl)-3-chloro-N-methyl-N-phenylbenzamide] was tested. Which IC50 did it give?
Answer: The IC50 was 1 to 100 nM.

Question: Which IC50 does the source give for `CN(Cc1ccccc1)C(=O)c1ccc(COc2cc(N)nc3[nH]nnc23)c(Cl)c1` [Example 204, 4-((5-amino-3H-[1,2,3]triazolo[4,5-b]pyridin-7-yloxy)methyl)-N-benzyl-3-chloro-N-methylbenzamide] here?
Answer: The IC50 was 1 to 100 nM.

Question: For `Nc1cc(OCc2ccc(C(=O)NC3CCC3)cc2Cl)c2nn[nH]c2n1` [Example 205, 4-((5-amino-3H-[1,2,3]triazolo[4,5-b]pyridin-7-yloxy)methyl)-3-chloro-N-cyclobutylbenzamide], which IC50 is on record?
Answer: Its IC50 is 1 to 100 nM.

Question: How did the IC50 turn out when `Nc1cc(OCc2ccc(C(=O)N3CCCCC3c3ccccc3)cc2Cl)c2nn[nH]c2n1` (stereo not drawn) [Example 206] was run?
Answer: Its IC50 is 101 to 999 nM.

Question: With `Cc1cc(CNC(=O)c2ccc(COc3cc(N)nc4[nH]nnc34)c(Cl)c2)n(C)n1` [Example 207, 4-((5-amino-3H-[1,2,3]triazolo[4,5-b]pyridin-7-yloxy)methyl)-3-chloro-N-((1,3-dimethyl-1H-pyrazol-5-yl)methyl)benzamide] as the compound, how does the IC50 read?
Answer: Its IC50 is 1 to 100 nM.

Question: How did the IC50 turn out when `Nc1cc(OCc2ccc(C(=O)N3CCCC(Oc4ccccc4)C3)cc2Cl)c2nn[nH]c2n1` (stereo not drawn) [Example 209] was run?
Answer: The IC50 was 1 to 100 nM.

Question: `Nc1cc(OCc2ccc(C(=O)N3CCC(CO)C3)cc2Cl)c2nn[nH]c2n1` (stereo not drawn) [Example 210] was tested. Which IC50 did it give?
Answer: The IC50 was 101 to 999 nM.

Question: With `CC(=O)N[C@H]1CCN(C(=O)c2ccc(COc3cc(N)nc4[nH]nnc34)c(Cl)c2)C1` [Example 212, (S)-N-(1-(4-((5-amino-3H-[1,2,3]triazolo[4,5-b]pyridin-7-yloxy)methyl)-3-chlorobenzoyl)pyrrolidin-3-yl)acetamide] as the compound, how does the IC50 read?
Answer: Its IC50 is 101 to 999 nM.

Question: With `Nc1cc(OCc2ccc(C(=O)Nc3ccccc3)cc2Cl)c2nn[nH]c2n1` [Example 213, 4-((5-amino-3H-[1,2,3]triazolo[4,5-b]pyridin-7-yloxy)methyl)-3-chloro-N-phenylbenzamide] as the compound, how does the IC50 read?
Answer: Its IC50 is 1 to 100 nM.

Question: `Nc1cc(OCc2ccc(C(=O)NCc3ccccc3Cl)cc2Cl)c2nn[nH]c2n1` [Example 214, 4-((5-amino-3H-[1,2,3]triazolo[4,5-b]pyridin-7-yloxy)methyl)-3-chloro-N-(2-chlorobenzyl)benzamide] was tested. Which IC50 did it give?
Answer: The IC50 was 1 to 100 nM.

Question: For `COc1ccccc1CNC(=O)c1ccc(COc2cc(N)nc3[nH]nnc23)c(Cl)c1` [Example 215, 4-((5-amino-3H-[1,2,3]triazolo[4,5-b]pyridin-7-yloxy)methyl)-3-chloro-N-(2-methoxybenzyl)benzamide], which IC50 is on record?
Answer: The IC50 was 1 to 100 nM.

Question: With `CNC(=O)CNC(=O)c1ccc(COc2cc(N)nc3[nH]nnc23)c(Cl)c1` [Example 218, 4-((5-amino-3H-[1,2,3]triazolo[4,5-b]pyridin-7-yloxy)methyl)-3-chloro-N-(2-(methylamino)-2-oxoethyl) benzamide] as the compound, how does the IC50 read?
Answer: Its IC50 is 101 to 999 nM.

Question: With `Nc1cc(OCc2ccc(C(=O)NCc3cccnc3)cc2Cl)c2nn[nH]c2n1` [Example 219, 4-((5-amino-3H-[1,2,3]triazolo[4,5-b]pyridin-7-yloxy)methyl)-3-chloro-N-(pyridin-3-ylmethyl)benzamide] as the compound, how does the IC50 read?
Answer: Its IC50 is 1 to 100 nM.

Question: For `NC(=O)C1CCN(C(=O)c2ccc(COc3cc(N)nc4[nH]nnc34)c(Cl)c2)CC1` [Example 220, 1-(4-((5-amino-3H-[1,2,3]triazolo [4,5-b]pyridin-7-yloxy)methyl)-3-chlorobenzoyl)piperidine-4-carboxamide], which IC50 is on record?
Answer: Its IC50 is 101 to 999 nM.

Question: `Nc1cc(OCc2ccc(C(=O)NC3CCCCC3)cc2Cl)c2nn[nH]c2n1` [Example 221, 4-((5-amino-3H-[1,2,3]triazolo[4,5-b]pyridin-7-yloxy)methyl)-3-chloro-N-cyclohexylbenzamide] was tested. Which IC50 did it give?
Answer: Its IC50 is 1 to 100 nM.

Question: How did the IC50 turn out when `CN(C)CCN(C)C(=O)c1ccc(COc2cc(N)nc3[nH]nnc23)c(Cl)c1` [Example 222, 4-((5-amino-3H-[1,2,3]triazolo[4,5-b]pyridin-7-yloxy)methyl)-3-chloro-N-(2-(dimethylamino)ethyl)-N-methylbenzamide] was run?
Answer: The IC50 was 101 to 999 nM.

Question: For `CN(C(=O)c1ccc(COc2cc(N)nc3[nH]nnc23)c(Cl)c1)C1CCCCC1` [Example 223, 4-((5-amino-3H-[1,2,3]triazolo[4,5-b]pyridin-7-yloxy)methyl)-3-chloro-N-cyclohexyl-N-methylbenzamide], which IC50 is on record?
Answer: Its IC50 is 101 to 999 nM.

Question: With `Nc1cc(OCc2ccc(C(=O)NCCc3c[nH]cn3)cc2Cl)c2nn[nH]c2n1` [Example 224, N-(2-(1H-imidazol-4-yl)ethyl)-4-((5-amino-3H-[1,2,3]triazol[4,5-b]pyridin-7-yloxy)methyl)-3-chlorobenzamide] as the compound, how does the IC50 read?
Answer: The IC50 was 1 to 100 nM.

Question: For `CS(=O)(=O)c1cccc(Cl)c1COc1cc(N)nc2[nH]nnc12` [Example 225, 7-(2-Chloro-6-(methylsulfonyl)benzyloxy)-3H-[1,2,3]triazolo[4,5-b]pyridin-5-amine], which IC50 is on record?
Answer: The IC50 was 1 to 100 nM.

Question: How did the IC50 turn out when `CCS(=O)(=O)c1ccc(Cl)cc1COc1cc(N)nc2[nH]nnc12` [Example 227, 7-((5-Chloro-2-(ethylsulfonyl)benzyl)oxy)-3H-[1,2,3]triazolo[4,5-b]pyridin-5-amine, TFA] was run?
Answer: Its IC50 is 101 to 999 nM.

Question: For `Nc1cc(OCc2cc(Cl)ccc2S(=O)(=O)Cc2ccccc2)c2nn[nH]c2n1` [Example 228, 7-((2-(Benzylsulfonyl)-5-chlorobenzyl)oxy)-3H-[1,2,3]triazolo[4,5-b]pyridin-5-amine, TFA], which IC50 is on record?
Answer: Its IC50 is 101 to 999 nM.

Question: For `CNS(=O)(=O)c1ccccc1COc1cc(N)nc2[nH]nnc12` [Example 229, 2-(((5-Amino-3H-[1,2,3]triazolo[4,5-b]pyridin-7-yl)oxy)methyl)-N-methylbenzenesulfonamide, TFA], which IC50 is on record?
Answer: Its IC50 is 101 to 999 nM.

Question: For `Nc1cc(OCc2ccccc2S(N)(=O)=O)c2nn[nH]c2n1` [Example 230, 2-(((5-Amino-3H-[1,2,3]triazolo[4,5-b]pyridin-7-yl)oxy)methyl)benzenesulfonamide, TFA], which IC50 is on record?
Answer: Its IC50 is 101 to 999 nM.

Question: Which IC50 does the source give for `CS(=O)(=O)c1cc(Br)ccc1COc1cc(N)nc2[nH]nnc12` [Example 231, 7-((4-Bromo-2-(methylsulfonyl)benzyl)oxy)-3H-[1,2,3]triazolo[4,5-b]pyridin-5-amine, TFA] here?
Answer: Its IC50 is 1 to 100 nM.

Question: How did the IC50 turn out when `Nc1cc(OCc2c(F)cc(Br)cc2F)c2nn[nH]c2n1` [Example 233, 7-((4-Bromo-2,6-difluorobenzyl)oxy)-3H-[1,2,3]triazolo[4,5-b]pyridin-5-amine, TFA] was run?
Answer: The IC50 was 1 to 100 nM.

Question: With `Nc1cc(OCc2c(F)ccc(Br)c2Cl)c2nn[nH]c2n1` [Example 235, 7-((3-Bromo-2-chloro-6-fluorobenzyl)oxy)-3H-[1,2,3]triazolo[4,5-b]pyridin-5-amine] as the compound, how does the IC50 read?
Answer: Its IC50 is 1 to 100 nM.

Question: For `Nc1cc(OCc2c(F)ccc(Br)c2F)c2nn[nH]c2n1` [Example 236, 7-((3-Bromo-2,6-difluorobenzyl)oxy)-3H-[1,2,3]triazolo[4,5-b]pyridin-5-amine], which IC50 is on record?
Answer: Its IC50 is 1 to 100 nM.

Question: `Nc1cc(OCc2c(F)cccc2Cl)c2nn[nH]c2n1` [Example 237, 7-((2-Chloro-6-fluorobenzyl)oxy)-3H-[1,2,3]triazolo[4,5-b]pyridin-5-amine] was tested. Which IC50 did it give?
Answer: The IC50 was 1 to 100 nM.

Question: How did the IC50 turn out when `Nc1cc(OCc2ccccc2OC(F)F)c2nn[nH]c2n1` [Example 238, 7-((2-(Difluoromethoxy)benzyl)oxy)-3H-[1,2,3]triazolo[4,5-b]pyridin-5-amine] was run?
Answer: Its IC50 is 1 to 100 nM.

Question: How did the IC50 turn out when `Nc1cc(OCc2ccccc2C(F)(F)F)c2nn[nH]c2n1` [Example 239, 7-((2-(Trifluoromethyl)benzyl)oxy)-3H-[1,2,3]triazolo[4,5-b]pyridin-5-amine] was run?
Answer: Its IC50 is 1 to 100 nM.

Question: `Nc1cc(OCc2ccc(Br)cc2OC(F)(F)F)c2nn[nH]c2n1` [Example 240, 7-((4-Bromo-2-(trifluoromethoxy)benzyl)oxy)-3H-[1,2,3]triazolo[4,5-b]pyridin-5-amine] was tested. Which IC50 did it give?
Answer: The IC50 was 1 to 100 nM.

Question: `Nc1cc(OCc2cc(Cl)ccc2C(F)(F)F)c2nn[nH]c2n1` [Example 241, 7-((5-Chloro-2-(trifluoromethyl)benzyl)oxy)-3H-[1,2,3]triazolo[4,5-b]pyridin-5-amine] was tested. Which IC50 did it give?
Answer: Its IC50 is 1 to 100 nM.

Question: How did the IC50 turn out when `COc1cc(-n2cccn2)ccc1COc1cc(N)nc2[nH]nnc12` [Example 243, 7-((2-Methoxy-4-(1H-pyrazol-1-yl)benzyl)oxy)-3H-[1,2,3]triazolo[4,5-b]pyridin-5-amine] was run?
Answer: The IC50 was 1 to 100 nM.
